Measured values published in PMC4366162 (PLoS ONE, 2015).
Counter-ions that a name gives are not always drawn.

test system: phosphorylated p65 protein (NF-κB pathway); experiment: Western blot analysis of LPS-activated NF-κB pathway (phosphorylated p65); assay type: cell-based, rat; conditions: up to 1.0 μM, 12 h pretreatment, LPS 500 ng/mL, 15 min
Protocol: (§1) Cells were plated in growth media overnight at a density of 1×10^6 cells per well on a 6-well plate. […] For the western blot analysis, cells were washed with PBS and then lysed with 150 μL RIPA buffer containing protease and phosphatase inhibitor cocktail. The supernatants were collected by centrifuge at 14,000 g×10 min at 4°C and stored at -80°C. The total protein content of lysates was determined by enhanced BCA protein assay kit (Beyotime Institute of Biotechnology, Shanghai, China). Electrophoresis was carried out on a NuPAGE Novex Bis-Tris […] gel (Invitrogen, USA) under the reduced condition. After electrophoresis separation, proteins were transferred to membranes and incubated with rabbit monoclonal phospho-NF-κB-p65 antibody (3033S, 1:1000 dilution, Cell Signaling, USA), rabbit polyclonal iNOS antibody (ab3523, 1:500 dilution, Abcam, USA) or mouse monoclonal β-actin antibody (ANT009, 1:1000 dilution AntGene, China). Targeted proteins were then visualized with Qdot 625 conjugate kit (Invitrogen, USA). Gel images were captured with ZF-258 Gel Imaging System (Shanghai Jiapeng Scientific Co. Ltd, China) under illuminating light at 350 nm.
(§2) Fig 5 Western blot analysis of potential molecular targets by 6-methoxyflavone in kidney mesangial cells with LPS as the inflammatory stimuli. […]

| SMILES | inhibition of p65 activation (phosphorylated p65) |
| --- | --- |
| COc1ccc2oc(-c3ccccc3)cc(=O)c2c1 [compound 9, 6-methoxyflavone] | no observable inhibition |

test system: LPS-induced NO production in rat kidney mesangial cells (HBZY-1); experiment: Total nitrite assay (Griess): inhibition of LPS-induced NO production in kidney mesangial cells; assay type: cell-based; conditions: Rattus norvegicus, HBZY-1, 48 h, rat mesangial cells, 10 ng/mL LPS, 48 h, Griess assay; read-out: IC50 against LPS-induced NO production (total nitrite)
Protocol: (§3) Rat mesangial HBZY-1 cells were obtained from China Center for Type Culture Collection (Wuhan, China). Cells were maintained in high glucose DMEM medium (Invitrogen, USA) supplemented with 10% heat-inactivated fetal bovine serum (FBS), 25 mM HEPES, 2 mM L-glutamine, 0.1 mM nonessential amino acids, 1.0 mM sodium pyruvate, 50 U/mL penicillin, and 50 μg/mL streptomycin at 37°C and 5% CO2. The cell passage number used for the following investigation was between 10 to 20 passages.
Mesangial cells were plated on 48-well plates at a density of 50,000 cells per well overnight in DMEM media containing 2% FBS. Cells were treated by flavonoid compounds at a series of concentrations from 0, 0.05, 0.1, 0.5, 1, 5, 10 to 50 μM or 0, 1, 5, 10, 50, 100 to 200 μM based on the initial activity range with or without 10 ng/mL LPS. Total nitrite production in the treatment media after 48 h was measured with Griess assay. Briefly, 100 μL media was mixed with 25 μL of reagent І (1% sulfanilamide in 5% phosphoric acid) and then 25 μL of reagent II (0.1% N-1-napthylethylenediamine dihydrochloride in water). The optical absorbance of the resulting solution was recorded at 540 nm with a 318C-microplate reader (Sanco Instrument Ltd. Shanghai, China) after 20 min. […] IC50 values were obtained using the dose-response analysis provided by the GraphPad Prism software.
All of the hydroxylated flavones were abbreviated as the positions of hydroxyl groups followed by—HO. The total production of nitrite in the treatment media was measured with Griess assay at 48 h post 10 ng/mL LPS stimulation.

| SMILES | IC50 |
| --- | --- |
| O=c1cc(-c2ccc(O)cc2)oc2cccc(O)c12 [compound 6] | 14 µM |
| O=c1cc(-c2cc(O)c(O)c(O)c2)oc2cc(O)cc(O)c12 [3',4',5',5,7-HO, tricetin] | ~200 µM |
| O=c1c(-c2ccc(O)cc2)coc2cc(O)ccc12 [daidzein, reference compound] | > 200 µM |
| O=c1cc(-c2ccc(O)cc2)oc2cc(O)cc(O)c12 [4',5,7-HO, apigenin] | > 200 µM |
| O=c1cc(-c2ccccc2O)oc2ccccc12 [compound 3] | > 200 µM |
| O=c1cc(-c2ccc(O)cc2)oc2ccc(O)cc12 [compound 5, 4′,6-dihydroxyflavone] | ~2 µM |
| O=c1c(O)c(-c2ccc(O)cc2O)oc2cc(O)cc(O)c12 [2',3,4',5,7-HO, morin] | ~200 µM |
| O=c1c(O)c(-c2ccccc2O)oc2c(O)c(O)ccc12 [2',3,7,8-HO] | ~200 µM |
| COc1ccc2oc(-c3ccccc3)cc(=O)c2c1 [compound 9, 6-methoxyflavone] | 0.192 µM |
| O=c1cc(-c2ccccc2)oc2c(O)c(O)ccc12 [compound 8] | 47 µM |
| O=c1c(O)c(-c2ccccc2)oc2ccccc12 [compound 4, 3-Hydroxyflavone] | > 200 µM |
| O=c1c(O)c(-c2ccc(O)cc2O)oc2ccc(O)cc12 [2',3,4',6-HO, 2′,3,4′,6-tetrahydroxyflavone] | ~200 µM |
| O=c1c(O)c(-c2cc(O)c(O)c(O)c2)oc2cc(O)cc(O)c12 [3,3',4',5',5,7-HO, 3,3′,4′,5,5′,7-hexahydroxyflavone] | > 200 µM |
| CC(=O)Oc1ccc2oc(-c3ccccc3)cc(=O)c2c1 [compound 10, 6-Acetoxyflavone] | 0.6 µM |
| O=c1c(O)c(-c2ccc(O)c(O)c2)oc2cc(O)ccc12 [3,3',4',7-HO, fisetin] | 11 µM |
| O=c1cc(-c2ccccc2)oc2ccc(OS(=O)(=O)O)cc12 [compound 11, 6-flavone sulfate sodium salt] | 2.1 µM |
| O=c1cc(-c2ccccc2)oc2ccc(O)cc12 [compound 1, 6-hydroxyflavone] | ~2 µM |
| O=c1c(O)c(-c2ccc(O)c(O)c2)oc2cc(O)cc(O)c12 [3,3',4',5,7-HO, quercetin] | 22 µM |
| O=c1c(O)c(-c2cccc(O)c2)oc2cc(O)ccc12 [3,3',7-HO] | 11 µM |
| Oc1ccc(/C=C/c2cc(O)cc(O)c2)cc1 [resveratrol, reference compound] | 11 µM |

same assay, conditions: Rattus norvegicus, HBZY-1, 48 h, read-out: IC50 against LPS-induced NO production (total nitrite)

| SMILES | IC50 |
| --- | --- |
| O=c1c(O)c(-c2ccc(O)c(O)c2)oc2c(O)c(O)cc(O)c12 [3,3',4',5,7,8-HO, 3,3′,4′,5,7,8-hexahydroxyflavone] | > 200 µM |
| O=c1cc(-c2ccccc2)oc2cc(O)ccc12 [compound 2, 7-hydroxyflavone] | 46 µM |
| O=c1c(O)c(-c2ccccc2)oc2cc(O)ccc12 [compound 7] | 27 µM |

same assay, conditions: more potent than 6-hydroxyflavone (IC50 1.7 μM)

| SMILES | potency against LPS-induced NO production relative to 6-hydroxyflavone |
| --- | --- |
| COc1ccc2oc(-c3ccccc3)cc(=O)c2c1 [compound 9, 6-methoxyflavone] | 10 fold |

same assay, conditions: rat mesangial cells, 10 ng/mL LPS, 48 h, Griess assay; read-out: IC50 against LPS-induced NO production (total nitrite)

| SMILES | IC50 |
| --- | --- |
| O=c1cc(-c2ccccc2)oc2ccc(O)cc12 [compound 1, 6-hydroxyflavone] | 1.7 µM |

same assay, conditions: shift of hydroxyl group from 6-position to 5-position

| SMILES | increase of IC50 against LPS-induced NO production versus flavone 5 |
| --- | --- |
| O=c1cc(-c2ccc(O)cc2)oc2cccc(O)c12 [compound 6] | 7 fold |

test system: mesangial cells; experiment: MTT cell viability assay; assay type: cell-based, rat; conditions: at 1.0 μM, 48 h
Protocol: as §3
Cells were plated overnight in growth media (5,000 cells per well) and then treated with each compound for 48 h at increasing concentrations with total DMSO at 0.1%. MTT assay was carried out as reported, and cell viability was plotted with GraphPad Prism program.

| SMILES | cytotoxicity on mesangial cells |
| --- | --- |
| COc1ccc2oc(-c3ccccc3)cc(=O)c2c1 [compound 9, 6-methoxyflavone] | weak cytotoxicity |

same assay, conditions: at 10 μM, 48 h

| SMILES | cytotoxicity on mesangial cells |
| --- | --- |
| CC(=O)Oc1ccc2oc(-c3ccccc3)cc(=O)c2c1 [compound 10, 6-Acetoxyflavone] | weak cytotoxicity |
| O=c1cc(-c2ccccc2)oc2ccc(OS(=O)(=O)O)cc12 [compound 11, 6-flavone sulfate sodium salt] | minimal |

test system: cytochrome P450 2C9; experiment: not given; parameters: method as in PMID 19515014; conditions: cited from earlier work

| SMILES | mode of inhibition of cytochrome P450 2C9 |
| --- | --- |
| O=c1cc(-c2ccccc2)oc2ccc(O)cc12 [compound 1, 6-hydroxyflavone] | noncompetitive inhibition |

test system: not listed separately; experiment: NO radical quenching study (spontaneous NO from sodium nitroprusside, Griess assay); conditions: sodium nitroprusside 5 mM in solution, read-out: IC50 of inhibition of spontaneously generated NO radicals from sodium nitroprusside
Protocol: Spontaneous generation of NO in solutions was achieved by a freshly prepared sodium nitroprusside stock solution in water (50 mM). The level of total nitrile production was determined by the Griess assay with the standard curve of sodium nitrile as described above. For the assay of NO inhibition by flavonoids, sodium nitroprusside solution (10 mM, 25 μL) was mixed with an equal volume of flavonoid solution in 50% DMSO, and the resulting solution was incubated at room temperature for 10 min. Griess reagent І and Griess reagent II (75 μL each) were subsequently added with a gap of 10 min. The optical density at 540 nm was recorded on a 318C-microplate reader after 15 min. The resulting data were processed and analyzed by the GraphPad Prism Software as described above.
Fig 3 Direct NO radical quench study with selected monohydroxylated and polyhydroxylated flavones. Spontaneous generation of NO was achieved by a freshly prepared sodium nitroprusside stock solution (5 mM) in water in Griess assay (top).

| SMILES | IC50 |
| --- | --- |
| O=C1O[C@H]([C@@H](O)CO)C(O)=C1O [ascorbic acid, reference compound] | 254 µM |
| O=c1cc(-c2ccccc2)oc2cc(O)ccc12 [compound 2, 7-hydroxyflavone] | > 500 µM |
| O=c1c(O)c(-c2ccccc2)oc2ccccc12 [compound 4, 3-Hydroxyflavone] | > 500 µM |
| O=c1c(O)c(-c2cc(O)c(O)c(O)c2)oc2cc(O)cc(O)c12 [3,3',4',5',5,7-HO, 3,3′,4′,5,5′,7-hexahydroxyflavone] | ~10000 µM |
| O=c1cc(-c2ccccc2)oc2ccc(O)cc12 [compound 1, 6-hydroxyflavone] | > 500 µM |

test system: inducible NO synthase (iNOS); experiment: Western blot analysis of LPS-induced iNOS protein; assay type: cell-based, rat; conditions: at 10 μM, 12 h pretreatment, LPS 500 ng/mL, 24 h
Protocol: as §1, §2

| SMILES | inhibition of downstream inducible NO synthase (iNOS) upon LPS stimulation |
| --- | --- |
| Oc1ccc(/C=C/c2cc(O)cc(O)c2)cc1 [resveratrol, reference compound] | weak inhibition |

same assay, conditions: from 200 nM to 1.0 μM, 12 h pretreatment, LPS 500 ng/mL, 24 h

| SMILES | inhibition of downstream inducible NO synthase (iNOS) upon LPS stimulation |
| --- | --- |
| COc1ccc2oc(-c3ccccc3)cc(=O)c2c1 [compound 9, 6-methoxyflavone] | significant inhibition |
